Assays:
Neuraminidase = Neuraminidase (Influenza A virus, UniProt B4URF0); design: species or system A/Anhui/2005(H5N1)
[1] = target: Neuraminidase (Influenza A virus) (UniProt B4URF0); settings: A/Anhui/2005(H5N1), at 10 µM
[2] = target: Neuraminidase (Influenza A virus) (UniProt B4URF0); settings: A/Anhui/2005(H5N1), at 1 µM
in vitro [3] = settings: human, liver microsomes
in vitro [4] = settings: human, liver microsomes; remark: listed apart in the source
in vitro [5] = settings: human, liver microsomes; remark: listed apart in the source
[6] = Octanol-phosphate buffered saline partition coefficient, log D of compound at pH 6.8 at 1 mg after 24 hrs by HPLC analysis; format: physicochemical
in vitro [7] = settings: human, liver microsomes; remark: listed apart in the source
in vitro [8] = settings: human, liver microsomes; remark: listed apart in the source
[9] = Octanol-phosphate buffered saline partition coefficient, log D of compound at pH 7.4 at 1 mg after 24 hrs by HPLC analysis; format: physicochemical
[10] = Octanol-phosphate buffered saline partition coefficient, log D of compound at pH 7.6 at 1 mg after 24 hrs by HPLC analysis; format: physicochemical
in vitro [11] = settings: human, liver microsomes; remark: listed apart in the source
in vitro [12] = settings: human, liver microsomes; remark: listed apart in the source
[13] = Octanol-phosphate buffered saline partition coefficient, log D of compound at pH 7 at 1 mg after 24 hrs by HPLC analysis; format: physicochemical
in vitro [14] = settings: human, liver microsomes; remark: listed apart in the source

Neuraminidase (Influenza A virus), sequence (B4URF0 as listed by the source): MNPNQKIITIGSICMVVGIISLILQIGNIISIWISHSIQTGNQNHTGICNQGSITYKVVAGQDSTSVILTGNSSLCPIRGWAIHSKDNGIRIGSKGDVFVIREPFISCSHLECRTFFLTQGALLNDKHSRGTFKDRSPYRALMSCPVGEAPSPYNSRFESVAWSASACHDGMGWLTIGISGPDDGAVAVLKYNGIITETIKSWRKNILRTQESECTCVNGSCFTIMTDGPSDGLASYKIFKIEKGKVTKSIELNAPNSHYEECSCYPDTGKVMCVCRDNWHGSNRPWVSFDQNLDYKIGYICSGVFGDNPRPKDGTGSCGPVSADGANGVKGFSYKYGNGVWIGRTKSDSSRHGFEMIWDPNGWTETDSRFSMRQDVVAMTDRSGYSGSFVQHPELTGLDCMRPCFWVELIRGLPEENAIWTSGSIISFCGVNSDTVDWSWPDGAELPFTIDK
Neuraminidase, sequence (B4URF0 whole entry): as the sequence (B4URF0 as listed by the source) above

Row | SMILES | IC50 (Neuraminidase) [µM] | inhibition [1] [%] | inhibition [2] [%] | also measured
1 | CCC(CC)O[C@@H]1C=C(C(=O)N[C@H](CC(C)C)C(=O)O)C[C@H](N)[C@H]1NC(C)=O | 6.55 | 84.4 | 38.9 | 
2 | CCC(CC)O[C@@H]1C=C(C(=O)N[C@@H](C(=O)O)C(C)C)C[C@H](N)[C@H]1NC(C)=O | 4.18 | 91.4 | 57.6 | 
3 | CCC(C)C[C@@H](NC(=O)C1=C[C@@H](OC(CC)CC)[C@H](NC(C)=O)[C@@H](N)C1)C(=O)OC (some centres not stated) |  | 50.5 | 23.6 | 
4 | CCC(CC)O[C@@H]1C=C(C(=O)N[C@@H](C(=O)O)C2CC2)C[C@H](N)[C@H]1NC(C)=O | 46.4 | 85.7 |  | 
5 | CCC(CC)O[C@@H]1C=C(C(=O)N[C@@H](C(=O)O)c2ccccc2)C[C@H](N)[C@H]1NC(C)=O |  | 8.3 |  | 
6 | CCC(CC)O[C@@H]1C=C(C(=O)N[C@H](CC(C)C)C(=O)OC)C[C@H](N)[C@H]1NC(C)=O |  | 41.7 | 13.1 | 
7 | CCC(CC)O[C@@H]1C=C(C(=O)N[C@H](Cc2ccccc2)C(=O)OC)C[C@H](N)[C@H]1NC(C)=O |  | 63.2 | 24.9 | 
8 | CCC(CC)O[C@@H]1C=C(C(=O)NCCCCc2ccccc2)C[C@H](N)[C@H]1NC(C)=O |  | 29.6 | 24.7 | 
9 | CCC(CC)O[C@@H]1C=C(C(=O)N[C@@H](CC(=O)OC)c2ccccc2)C[C@H](N)[C@H]1NC(C)=O |  | 56.7 | 26.5 | 
10 | CCC(CC)O[C@@H]1C=C(C(=O)NCCCc2ccccc2)C[C@H](N)[C@H]1NC(C)=O |  | 19.3 | 13.5 | 
11 | CCCC[C@@H](NC(=O)C1=C[C@@H](OC(CC)CC)[C@H](NC(C)=O)[C@@H](N)C1)C(=O)O | 30.7 | 85.5 |  | 
12 | O=C(O)Cc1ccccc1Nc1c(Cl)cccc1Cl [DICLOFENAC] |  |  |  | CLint scaled at 1 µM (in vitro [3]): 108 mL/min/kg; microsomal CLint at 1 µM (in vitro [3]): 120 µL/min/mg; half-life at 1 µM (in vitro [4]): 11.6 min
13 | CCC(CC)O[C@@H]1C=C(C(=O)N[C@H](C)C(=O)O)C[C@H](N)[C@H]1NC(C)=O | 24.4 | 81.1 | 27.8 | 
14 | CCC(CC)O[C@@H]1C=C(C(=O)N[C@H](Cc2ccccc2)C(=O)O)C[C@H](N)[C@H]1NC(C)=O | 21.9 | 80.4 | 21.1 | 
15 | CCC(CC)O[C@@H]1C=C(C(=O)N[C@@H](C(=O)O)C(C)(C)C)C[C@H](N)[C@H]1NC(C)=O | 1.3 | 91 | 58.3 | remaining at 1 h, 1 µM (in vitro [5]): 84.1%; CLint scaled at 1 µM (in vitro [3]): < 8.6 mL/min/kg; microsomal CLint at 1 µM (in vitro [3]): < 9.6 µL/min/mg; logD at 24 h [6]: -0.0458; remaining at 10 min, 1 µM (in vitro [7]): 87.3%; remaining at 5 min, 1 µM (in vitro [8]): 111%; logD at 24 h [9]: -0.116; logD at 24 h [10]: -0.209; remaining at 0.5 h, 1 µM (in vitro [11]): 95.5%; half-life at 1 µM (in vitro [4]): > 145 min; remaining at 20 min, 1 µM (in vitro [12]): 106%; logD at 24 h [13]: -0.167; remaining at 1 h, 1 µM (in vitro [14]): 92.9%
16 | CCC(CC)O[C@@H]1C=C(C(=O)NCc2ccc(Cl)c(Cl)c2)C[C@H](N)[C@H]1NC(C)=O |  | 21.4 |  | 
17 | CCC(CC)O[C@@H]1C=C(C(=O)NC2CC2)C[C@H](N)[C@H]1NC(C)=O |  | 55.3 | 5 | 
18 | C[C@]12CC[C@H]3[C@@H](CCC4=CC(=O)CC[C@@]43C)[C@@H]1CC[C@@H]2O [TESTOSTERONE] |  |  |  | remaining at 1 h, 1 µM (in vitro [5]): 5.2%; remaining at 10 min, 1 µM (in vitro [7]): 58.9%; remaining at 5 min, 1 µM (in vitro [8]): 64.8%; remaining at 0.5 h, 1 µM (in vitro [11]): 21.5%; remaining at 20 min, 1 µM (in vitro [12]): 37.8%; remaining at 1 h, 1 µM (in vitro [14]): 99.3%

Reference: ChEMBL document CHEMBL4265967, “Design, synthesis, and evaluation of carboxyl-modified oseltamivir derivatives with improved lipophilicity as neuraminidase inhibitors” (Bioorg Med Chem Lett, 2018)
